Data as given in patent US20250281509A1, “SEQUENTIAL HORMONE THERAPY TO IMPROVE SURVIVAL AND ENHANCE RESPONSE TO IMMUNE THERAPY IN MEN WITH PROSTATE CANCER” (The Johns Hopkins University, priority 2021, published 2025).
Values joined by “and” are separate entries in the source; they are usually repeats but may differ in a detail not shown here. Equal entries are not always repeated. Where two headings read alike, the source gives them in different places.

Legend:
AR-V = AR-V expression in VCaP cells exposed to R1881 (FIG. 1B); format: cell-based, human; details: 48-hr exposure
From the text: FIG. 1A and FIG. 1B show (FIG. 1A) Effect of synthetic androgen R1881 or bicalutamide on growth of ADT-resistant LNCaP and VCAP; (FIG. 1B) expression of full-length AR (AR-FL), AR-variants (AR-Vs) using antibody to AR N-terminal domain and AR-V& using AR-V7 specific antibody in the absence or presence of R1881;
Thelen et al., 2013. These AR-V expressing cells are profoundly growth inhibited by high dose levels of androgens, FIG. 1A.

PARP cleavage = PARP cleavage in prostate cancer cell lines; format: cell-based, human
Method: (§1) Cell lysates were prepared either in 1× denaturing lysis buffer (Cell Signaling #9803) or non-denaturing lysis buffer (50 mM HEPES pH 7.4, 150 mM NaCl, 5 mM EDTA, 10% glycerol, 1% Nonidet P-40, and supplemented with phosphatase and protease inhibitors). For denaturing gels, lysates were mixed with Laemmli buffer containing β-mercaptoethanol, boiled for 5 mins and stored at −80° C. until use. Native lysates were mixed with native loading buffer (BioRad), and semi-native lysates were mixed with Laemmli buffer without beta-mercaptoethanol and stored at −80° C. without boiling. Native gels were resolved as described previously, Robitaille et al., 2016; denaturing and semi-native gels were resolved on 4-15% precast polyacrylamide gels (BioRad) followed by transfer to PVDF membrane. Membranes were blocked in 5% nonfat milk in wash buffer (Tris-buffered saline+0.1% Tween-20). After blocking, immunoblotting was performed with primary antibodies overnight at 4° C., followed by incubation with HRP-conjugated secondary antibodies for 1 h at room temperature. Blots were analyzed using the chemiluminescence method. Blots were developed using ECL Western blot detection reagent (GE Healthcare) for highly expressed proteins and Super Signal West Femto (Thermo Fisher) reagent for low expression proteins. Each experiment was repeated at least two to three times.

cytoplasmic DNA = experiment: Confocal microscopy of cytoplasmic DNA; format: cell-based, human; details: combination of hydroxychloroquine and R1881
Method: Cells were grown on sterile coverslips in low density and were treated with R1881 (T) or vehicle control (C). After treatment, media was removed, and cells were fixed and permeabilized using chilled methanol for 10 min in deep-freezer followed by 10 min fixation in 10% natural buffered formalin at room temperature. Post-fixation, cells were blocked overnight in sterile-filtered 5% BSA in PBS at 4° C. Cells were incubated with a primary antibody, followed by a suitable fluorochrome tagged secondary antibody at 4° C. overnight. Both primary and secondary antibodies were diluted with 5% BSA in PBS. Cells were postfixed with 10% NBF for 2-3 min before mounting on a clean glass slide using Vectashield antifade mounting media (Vector Laboratories). Image acquisition was performed on the LSM 700 laser confocal microscope (Zeiss). Experiment was repeated at least three times and images from at least five random fields from each experiment were used for analysis. Images were analyzed using the image processing package Fiji.

LNCaP cells = experiment: Annexin-V positivity; format: cell-based, human
lipid peroxides = experiment: Lipid peroxide sensor C11-BODIPY; format: cell-based, human; details: LNCaP cells, vs vehicle
autophagy = experiment: Autophagy induction in PCa cell lines; format: cell-based, human
Method: as §1
Cells were plated on 60-mm dishes to obtain 80% confluence on the next day. Cells were transfected with tandem mRFP-GFP fluorescent-tagged LC3 (ptfLC3) (Addgene #21074). 24 h post-transfection, cells were trypsinized and plated on sterile glass-bottom dishes at a 40-50% confluency and treated with androgens. Autophagosomes are labelled as green and red dual positive punctas and autolysosomes appear as red puncta as the green puncta is pH sensitive and quenched by the acidic lysosomal pH. Cells were then imaged using a live cell Zeiss LSM780-FCS Single-point, laser scanning confocal microscope. Images were processed using the ImageJ software. Cells with predominantly yellow RFP/GFP (autophagosome) or red RFP (autolysosome) punctae were counted and analyzed from at least twenty fields. Each experiment had images from at least five random fields and repeated three times.

labile iron pool (Fe2+) = experiment: Measurement of the labile iron pool; format: cell-based, human; details: LNCaP cells, vs vehicle
Method: An iron assay kit (Sigma) was used to measure the labile iron pool in control and R1881 treated cells. LNCaP and LAPC4 cells were culture in a 100-mm tissue culture dish and were treated for […] before lysis in the buffer provided with the kit by snap freezing and thawing method. The lysate was cleared by centrifuging at 13000×g, and iron was measured by iron detection reagents supplied in the kit. Iron levels were calculated and normalized by the total protein present in the cell lysate. Levels of Fe^2+ were analyzed in SupraT treated cells and were normalized to vehicle control cells.

CRPC [1] = details: enzalutamide post-abiraterone, pre-chemotherapy setting; cited from earlier work
CRPC [2] = details: post-docetaxel setting; cited from earlier work
[3] = system: metastatic castration-resistant prostate cancer; details: cited from earlier work
[4] = system: CRPC progressing on abiraterone; experiment: TRANSFORMER randomized Phase II study (NCT02286921); format: in vivo, human; details: for PSA50 response: patients crossing from BAT to enzalutamide
Method: The TRANSFORMER study (NCT02286921) was a DOD-sponsored randomized Phase II study designed to compare the efficacy of BAT vs. enzalutamide in asymptomatic men with CRPC progressing on abiraterone, FIG. 7A. The study was conducted at 17 academic centers across the U.S. The study was coordinated by the Prostate Cancer Disease Group clinical research team at Johns Hopkins, who performed regulatory oversight, study/site monitoring, and data analyses. From 2015-2018, 195 patients underwent 1:1 randomization to either standard dose enzalutamide (n=101) or BAT (n=94) at 400 mg IM every 28 days. The primary endpoint was clinical/radiographic PFS. At time of progression, patients were given the option to crossover to the alternate therapy. The trial was designed to show a 50% improvement in the primary endpoint for BAT vs. enzalutamide. […] Objective response was 24.4% for BAT and 4.2% for enzalutamide (p=0.067). Best PSA50 was 26.4% for BAT and 25.5% for enzalutamide (p=0.697).
At time of progression, 46 (49%) of patients on the […] crossed over to receive BAT and 34 (33.7%) crossed over from BAT to receive enzalutamide and were available for analysis.

CRPC [5] = details: cited from earlier work
CRPC [6] = experiment: Post hoc analysis of PSA response to subsequent hormonal therapies post-BAT (pilot study); format: in vivo, human
Method: As part of the aforementioned pilot study, a post hoc exploratory analysis on the effect of BAT on subsequent hormonal therapies was performed. […] All of the patients had received at least one anti-androgen prior to starting the study, Table 2. PSA response to secondary hormonal therapy after return to castrate T-levels post-BAT.

CRPC [7] = experiment: RESTORE Phase II study (NCT02090114); format: in vivo, human; details: re-challenge with the agent patients progressed on before BAT
From the text: The RESTORE study (NCT02090114) was an NIH sponsored Phase II study designed to assess the safety and efficacy of BAT in men (n=30 per cohort) with CRPC progressing on enzalutamide (Cohort A) or abiraterone (Cohort B), FIG. 6A. Shah et al., 2004. The primary endpoint of the first part of the study was to assess PSA response to BAT. Secondary endpoints included objective response, safety, and quality of life. The second part of the study was to determine in BAT could re-sensitize patients to repeat exposure to second line therapy that patients were progressing on prior to receiving BAT. Thus, patients progressing on enzalutamide were re-exposed to enzalutamide after BAT and similarly for abiraterone. Both arms of this study met the primary endpoint. PSA50 Response to BAT was 30% in patient's post-enzalutamide and 18% post-abiraterone, FIG. 6B. Shah et al., 2004. […] Overall duration of response to BAT and duration of response to re-exposure was longer in the post-enzalutamide vs. post-abiraterone cohort. The PSA50 response to re-exposure to enzalutamide was 71% vs. only 21% for patients re-exposed to abiraterone, FIG. 6B. Shah et al., 2004. A third cohort was later added (Cohort C) for men progressing on ADT alone. Overall, 90 men were treated on this study over a 4-year period (2014-2018).

[8] = initial randomized arms, post-abiraterone
[9] = Enzalutamide Phase III (PREVAIL)

C[C@]1(O)CC[C@H]2[C@@H]3CCC4=CC(=O)CCC4=C3C=C[C@@]21C [R1881, 17α-methyl-19-nor-δ9,11-testosterone]
AR-V expression (AR-V): Complete loss of AR-V expression
PARP cleavage (PARP cleavage): none of the prostate cancer cell lines treated with synthetic androgen R1881 had any substantial enhancement of PARP cleavage
cytoplasmic DNA (cytoplasmic DNA; LAPC4 cells): did not show any cytoplasmic DNA
cytoplasmic DNA (cytoplasmic DNA; LNCaP cells): marked localization of cytoplasmic DNA
cytoplasmic DNA (cytoplasmic DNA; VCaP cells): fewer cytoplasmic DNA puncta
Annexin-V positivity (LNCaP cells): no significant increase in Annexin-V
lipid peroxides (lipid peroxides): increased
basal autophagy (autophagy; LAPC4 and 22Rv1 cells): remained largely unaffected
autophagy (autophagy; LNCaP and VCaP cells): notably induces autophagy
labile iron pool (labile iron pool (Fe2+)): increased

CNC(=O)c1ccc(N2C(=S)N(c3ccc(C#N)c(C(F)(F)F)c3)C(=O)C2(C)C)cc1F [enzalutamide]
median rPFS (CRPC [1]): ≤ 6 months
improvement in survival (CRPC [2]): approximately 5 months
PFS (median), clinical/radiographic ([3]; AR-V7-negative patients): 6.1 months
PSA response rate ([3]; AR-V7-negative patients): 52.6%
PSA-PFS (median) ([3]; AR-V7-negative patients): 5.9 months
PFS (median), clinical/radiographic ([3]; AR-V7-positive patients): 2.1 months
PSA response rate ([3]; AR-V7-positive patients): 0%
PSA-PFS (median) ([3]; AR-V7-positive patients): 1.4 months
Objective response ([4]; enzalutamide post-BAT patients): 28.6%
Time to PSA progression ([4]; immediately post-abiraterone): 3.8 months
increase in time to PSA progression, post-BAT vs post-abiraterone ([4]; in vivo): ~3 fold
overall survival ([4]; in vivo): 28 months
Best PSA50 [4, 8]: 25.5%
Objective response [4, 8]: 4.2%
Best PSA50 ([4]; initial randomized arms, post-abiraterone, listed as Enza): 25%
clinical/radiographic PFS ([4]; initial randomized arms, p=0.2267): 5.72 m
PSA50 response [4]: 72.7%
PSA50 response ([4]; listed as Enza): 78%
Time to PSA progression ([4]; post-BAT): 10.9 months
Time to PSA progression ([4]; post-BAT, listed as Enza): 11 months
>50% decline PSA (%) (CRPC [5]; [9]): 78%
Objective Response (%) (CRPC [5]; [9]): 59%
PSA PFS (CRPC [5]; [9]): 11.2
TTP (m) (CRPC [5]; [9]): 20 m
hazard ratio, overall survival (CRPC [5]; enzalutamide vs placebo, 95% CI 0.60 to 0.84): 0.71
median overall survival (CRPC [5]; pre-chemotherapy setting, placebo 30.2 months): 32.4 months
patients with a PSA decline on second line therapy (CRPC [6]; after return to castrate testosterone levels post-BAT): 4/4
Maximum PSA decline upon secondary HT initiation (%) (CRPC [6]; per subject, secondary HT received post-study after return to castrate T-levels post-BAT): −30.4% and −99.5% and −78.3% and −53.2%
patients with >50% PSA decline on second line therapy (CRPC [6]; post-BAT): 3/4
PSA decline upon re-challenge (CRPC [6]; subjects who had previously progressed on the same agent): 53.2%
PSA50 response to re-exposure post-BAT (CRPC [7]): 71%
